Results reported in patent US10023558B2, “Compounds” (CHIESI FARMACEUTICI S.P.A., priority 2016, dated 2018).

These compounds were tested against T1, human neutrophil elastase (HNE) (Homo sapiens, UniProt P08246) (assay: HNE Enzyme Assay (fluorogenic peptide substrate MeOSuc-Ala-Ala-Pro-Val-AMC)). Details: human leukocyte elastase 0.00072 U/mL, substrate 100 μM, 25° C., 30 minutes, at least two separate experiments; read-out: HNE inhibition (IC50 values).
T1 construct: purchased Sigma E8140
T1 sequence (P08246 30-247 limits assumed): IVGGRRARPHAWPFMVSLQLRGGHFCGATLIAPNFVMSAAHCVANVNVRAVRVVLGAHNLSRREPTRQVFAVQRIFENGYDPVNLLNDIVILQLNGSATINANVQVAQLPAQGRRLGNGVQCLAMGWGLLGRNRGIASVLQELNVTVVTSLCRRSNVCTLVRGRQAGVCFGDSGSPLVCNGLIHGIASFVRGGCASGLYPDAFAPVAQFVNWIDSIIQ
Format: biochemical
Procedure, shortened: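 Human leukocyte elastase (0.00072 U/mL) with 100 μM MeOSuc-AAPV-AMC in Tris pH 7.5 buffer with NaCl, CaCl2, Brij-35, 1% DMSO, 30 min at 25° C, stopped with soybean trypsin inhibitor. AMC fluorescence (ex 380/em 460 nm); IC50 from concentration-response as % inhibition of control, at least two experiments.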

`Cc1c(-c2ccnn2-c2ccc(C#N)cc2)n(C(=O)N[C@H]2C[C@H]3CC[C@@H](C2)[N+]3(C)C)c(=O)n1-c1cccc(C(F)(F)F)c1` [Example 36, (1S,3R,5R)-3-{[5-[2-(4-Cyano-phenyl)-2H-pyrazol-3-yl]-4-methyl-2-oxo-3-(3-trifluoromethyl-phenyl)-2,3-dihydro-imidazole-1-carbonyl]-amino}-8,8-dimethyl-8-azonia-bicyclo[3.2.1]octane benzene sulfonate] and `Cc1c(-c2ccnn2-c2ccc(C#N)cc2)n(C(=O)N[C@@H]2C[C@H]3CC[C@@H](C2)[N+]3(C)C)c(=O)n1-c1cccc(C(F)(F)F)c1` [Example 39, (1R,3S,5S)-3-{[5-[2-(4-Cyano-phenyl)-2H-pyrazol-3-yl]-4-methyl-2-oxo-3-(3-trifluoromethyl-phenyl)-2,3-dihydro-imidazole-1-carbonyl]-amino}-8,8-dimethyl-8-azonia-bicyclo[3.2.1]octane benzene sulfonate] cannot be ordered by IC50: < 1 nM for the first, < 1 nM for the second.

`Cc1c(-c2ccnn2-c2ccc(C#N)cc2)n(C(=O)N[C@H]2C[C@H](C(=O)NCC[N+](C)(C)C)C2)c(=O)n1-c1cccc(C(F)(F)F)c1` [Example 83, {2-[(Trans-3-{[5-[2-(4-cyano-phenyl)-2H-pyrazol-3-yl]-4-methyl-2-oxo-3-(3-trifluoromethyl-phenyl)-2,3-dihydro-imidazole-1-carbonyl]-amino}-cyclobutanecarbonyl)-amino]-ethyl}-trimethyl-ammonium benzene sulfonate] and `Cc1c(-c2ccnn2-c2ccc(C#N)cc2)n(C(=O)N[C@H]2C[C@H](C[N+](C)(C)C)C2)c(=O)n1-c1cccc(C(F)(F)F)c1` [Example 68, (Trans-3-{[5-[2-(4-cyano-phenyl)-2H-pyrazol-3-yl]-4-methyl-2-oxo-3-(3-trifluoromethyl-phenyl)-2,3-dihydro-imidazole-1-carbonyl]-amino}-cyclobutylmethyl)-trimethyl-ammonium benzene sulfonate] cannot be ordered by IC50: < 1 nM for the first, < 1 nM for the second.

`Cc1c(-c2ccnn2-c2ccc(C#N)cc2)n(C(=O)N[C@@H](C)c2ncc(C[N+](C)(C)C)o2)c(=O)n1-c1cccc(C(F)(F)F)c1` [Example 64, [2-((S)-1-{[5-[2-(4-Cyano-phenyl)-2H-pyrazol-3-yl]-4-methyl-2-oxo-3-(3-trifluoromethyl-phenyl)-2,3-dihydro-imidazole-1-carbonyl]-amino}-ethyl)-oxazol-5-ylmethyl]-trimethyl-ammonium benzene sulfonate] and `Cc1c(-c2ccnn2-c2ccc(C#N)cc2)n(C(=O)N[C@@H](C)c2ncc(CN(C)C)o2)c(=O)n1-c1cccc(C(F)(F)F)c1` [Example 16, 5-[2-(4-Cyano-phenyl)-2H-pyrazol-3-yl]-4-methyl-2-oxo-3-(3-trifluoromethyl-phenyl)-2,3-dihydro-imidazole-1-carboxylic acid [(S)-1-(5-dimethylaminomethyl-oxazol-2-yl)-ethyl]-amide] cannot be ordered by IC50: < 1 nM for the first, < 1 nM for the second.

Compared with `Cc1c(-c2ccnn2-c2ccc(C#N)cc2)n(C(=O)N[C@H]2CC[C@H](N(C)C)CC2)c(=O)n1-c1cccc(C(F)(F)F)c1` [Example 9, 5-[2-(4-Cyano-phenyl)-2H-pyrazol-3-yl]-4-methyl-2-oxo-3-(3-trifluoromethyl-phenyl)-2,3-dihydro-imidazole-1-carboxylic acid (trans-4-dimethylamino-cyclohexyl)-amide], `Cc1c(-c2ccnn2-c2ccc(C#N)cc2)n(C(=O)N[C@H]2CC[C@@H]([N+](C)(C)C)CC2)c(=O)n1-c1cccc(C(F)(F)F)c1` [Example 45, (Cis-4-{[5-[2-(4-cyano-phenyl)-2H-pyrazol-3-yl]-4-methyl-2-oxo-3-(3-trifluoromethyl-phenyl)-2,3-dihydro-imidazole-1-carbonyl]-amino}-cyclohexyl)-trimethyl-ammonium benzene sulfonate] is higher in IC50: < 1 nM for the first, 1 to 10 nM for the second. The first is the more potent here.

First: Cc1c(-c2ccnn2-c2ccc(C#N)cc2)n(C(=O)N[C@H]2CC[C@H]([N+](C)(C)Cc3ccccc3)CC2)c(=O)n1-c1cccc(C(F)(F)F)c1 [Example 43, Benzyl-(trans-4-{[5-[2-(4-cyano-phenyl)-2H-pyrazol-3-yl]-4-methyl-2-oxo-3-(3-trifluoromethyl-phenyl)-2,3-dihydro-imidazole-1-carbonyl]-amino}-cyclohexyl)-dimethyl-ammonium bromide]
Second: CC[N+](C)(C)[C@H]1CC[C@@H](NC(=O)n2c(-c3ccnn3-c3ccc(C#N)cc3)c(C)n(-c3cccc(C(F)(F)F)c3)c2=O)CC1 [Example 48, (Cis-4-{[5-[2-(4-cyano-phenyl)-2H-pyrazol-3-yl]-4-methyl-2-oxo-3-(3-trifluoromethyl-phenyl)-2,3-dihydro-imidazole-1-carbonyl]-amino}-cyclohexyl)-ethyl-dimethyl-ammonium benzene sulfonate]
The IC50 of the first is lower: < 1 nM for the first, 1 to 10 nM for the second. The first is the more potent here.

`Cc1c(-c2ccnn2-c2ccc(C#N)cc2)n(C(=O)N[C@@H](C)C(=O)NC2CC[N+](C)(C)CC2)c(=O)n1-c1cccc(C(F)(F)F)c1` [Example 57, 4-((S)-2-{[5-[2-(4-Cyano-phenyl)-2H-pyrazol-3-yl]-4-methyl-2-oxo-3-(3-trifluoromethyl-phenyl)-2,3-dihydro-imidazole-1-carbonyl]-amino}-propionylamino)-1,1-dimethyl-piperidinium benzene sulfonate] and `Cc1c(-c2ccnn2-c2ccc(C#N)cc2)n(C(=O)NC2CCN(C(=O)NCC[N+](C)(C)C)CC2)c(=O)n1-c1cccc(C(F)(F)F)c1` [Example 92, {2-[(4-{[5-[2-(4-Cyano-phenyl)-2H-pyrazol-3-yl]-4-methyl-2-oxo-3-(3-trifluoromethyl-phenyl)-2,3-dihydro-imidazole-1-carbonyl]-amino}-piperidine-1-carbonyl)-amino]-ethyl}-trimethyl-ammonium benzene sulfonate] cannot be ordered by IC50: < 1 nM for the first, < 1 nM for the second.

`Cc1c(-c2ccnn2-c2ccc(C#N)cc2)n(C(=O)N[C@H]2CC[C@H](C(=O)N3CCC([N+](C)(C)C)CC3)CC2)c(=O)n1-c1cccc(C(F)(F)F)c1` [Example 88, [1-(Trans-4-{[5-[2-(4-cyano-phenyl)-2H-pyrazol-3-yl]-4-methyl-2-oxo-3-(3-trifiuoromethyl-phenyl)-2,3-dihydro-imidazole-1-carbonyl]-amino}-cyclohexanecarbonyl)-piperidin-4-yl]-trimethyl-ammonium benzene sulfonate] and `COc1ccc(CN2CC3C(C2)C3NC(=O)n2c(-c3ccnn3-c3ccc(C#N)cc3)c(C)n(-c3cccc(C(F)(F)F)c3)c2=O)cc1` (stereo not drawn) [Example 7, 5-[2-(4-Cyano-phenyl)-2H-pyrazol-3-yl]-4-methyl-2-oxo-3-(3-trifluoromethyl-phenyl)-2,3-dihydro-imidazole-1-carboxylic acid [3-(4-methoxy-benzyl)-3-aza-bicyclo[3.1.0]hex-6-yl]-amide] cannot be ordered by IC50: < 1 nM for the first, < 1 nM for the second.

For `Cc1c(-c2ccnn2-c2ccc(C#N)cc2)n(C(=O)N[C@@H](C)c2ccncc2)c(=O)n1-c1cccc(C(F)(F)F)c1` [Example 5, 5-[2-(4-Cyano-phenyl)-2H-pyrazol-3-yl]-4-methyl-2-oxo-3-(3-trifluoromethyl-phenyl)-2,3-dihydro-imidazole-1-carboxylic acid ((S)-1-pyridin-4-yl-ethyl)-amide], the IC50 was < 1 nM.
